From US10588982B2, “Site-specific covalent chemical ligation to monoclonal and polyclonal immunoglobulin” (The Regents of the University of California, priority 2015, dated 2020) come the findings set out here.

For one test, the system named is trastuzumab. Description: Confirmation screen on TentaGel beads, crosslinked trastuzumab detected with anti-human IgG Cy3. Particulars: DNFB reacted with methylamine or methylpypridine prior to staining.
The test system of another test is SKOV3. Description: In vitro T cell killing assay by flow cytometry. It counts as cell-based. Particulars: with activated T cells. The method, then:
FIG. 30. Depicts results of an in vitro T cell killing assay monitored and quantified by flow cytometry.
In vitro cytotoxicity assays were performed to analyze the effect of the NMDS-LYX30 bi-functional immunoconjugate on T cell targeting of an α3β1 integrin expressing target cell. Target cells (SKOV3) were labeled with GFP. The labeled target cells were plated in 6-well plates at 30000 cells per well and allowed to adhere overnight at 37° C. in a humidified atmosphere of 5% CO2. PBMCs were isolated from healthy volunteer donor and activated with anti-CD3, anti-CD28 (1 ug/ml) for 72 hours prior to co-incubation with target cells. The activated PBMCs were co-cultured with target cells at E:T=10:1 ratio for 12 hours at 37° C. in a humidified atmosphere of 5% CO2 with or without 100 ng/ml immunoconjugates contained medium. At the end of the incubation, the cells were lifted by trypsin and collected from the plate. The cells were resuspended in equal volume of PBS containing 2% FBS, 1 mmol/L EDTA, Propidium iodine (PI) and Annexin V-APC for 15 minutes. The fluorescent intensity of GFP, PI and APC were recorded by a FACs machine. 10000 events of target cells were recorded by gating GFP positive channel. The percentage of live/dead cells was calculated by the different cell population containing different amount of annexin V or PI. […] The results are depicted in FIG. 30.
For orientation: In flow cytometry, cells or beads pass a laser one at a time.

As to “indole-butyrate-Lys(DNFB)-Asp-Ser linker [DS affinity element]”, the “decrease in fluorescent intensity” value with trastuzumab is listed as 50%.
Turning to “nivolumab: anti-PD-1 checkpoint inhibitor antibody”, the target cell killing entry in the test on SKOV3 is recorded as “increased target cell killing”.
